Data set [1] has as its target T1, UGT2B7^268Tyr (Homo sapiens, UniProt P16662).
T1 sequence (P16662 24-529): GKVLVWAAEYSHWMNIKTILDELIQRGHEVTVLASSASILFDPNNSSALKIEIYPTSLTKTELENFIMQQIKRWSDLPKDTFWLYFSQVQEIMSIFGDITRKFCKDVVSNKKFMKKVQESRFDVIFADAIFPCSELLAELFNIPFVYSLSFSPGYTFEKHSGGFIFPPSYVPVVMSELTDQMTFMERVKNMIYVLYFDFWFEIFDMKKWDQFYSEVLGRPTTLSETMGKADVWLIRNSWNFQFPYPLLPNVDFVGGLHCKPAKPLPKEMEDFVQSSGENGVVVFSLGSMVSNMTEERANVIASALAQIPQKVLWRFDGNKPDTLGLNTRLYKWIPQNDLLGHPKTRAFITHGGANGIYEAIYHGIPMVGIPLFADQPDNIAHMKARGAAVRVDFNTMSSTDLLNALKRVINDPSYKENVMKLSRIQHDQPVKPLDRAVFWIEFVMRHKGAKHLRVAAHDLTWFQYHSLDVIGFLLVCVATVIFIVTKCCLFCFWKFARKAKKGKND
Particulars: rUGT2B7^268Tyr microsomes; for inhibition of HM3G formation: 100 μM cannabinoid, 400 μM hydromorphone, 2% BSA, vs vehicle control; for IC50: read-out: IC50,u, IC50 corrected for nonspecific binding (fu,inc from refs 32,33; 11-OH-THC fu,inc as surrogate for 7-OH-CBD), mean ± SD.

For another data set, the target named is T2, UGT2B7^268His (Homo sapiens, UniProt P16662, Y268H).
T2 construct: expressed in transfected cells; microsomal membrane fraction
T2 sequence (P16662 24-529 Y268H): T1 sequence (P16662 24-529) with Y245H
As to the kind of experiment: Inhibition of hydromorphone glucuronidation (HM3G formation) by cannabinoids in rUGT2B7^268His microsomes. Format: biochemical. Conditions: for inhibition of HM3G formation: 100 μM cannabinoid, 400 μM hydromorphone, 2% BSA, vs vehicle control; for IC50: IC50 corrected for nonspecific binding (fu,inc from refs 32,33; 11-OH-THC fu,inc as surrogate for 7-OH-CBD and 7-COOH-CBD), mean ± SD.

The target in data set [2] is T3, UGT2B7 in pooled human liver microsomes (HLM) (Homo sapiens, UniProt P16662).
T3 sequence (P16662 24-529): T1 sequence (P16662 24-529)
Kind of data set: Inhibition of UGT2B7-mediated hydromorphone glucuronidation by cannabinoids in pooled HLM (screening, IC50, Ki, inhibition type). In kind it is biochemical. Particulars: for inhibition of HM3G formation (in words) / inhibition of HM3G formation: 100 μM cannabinoid, pooled HLM; for IC50: IC50 corrected for nonspecific binding (fu,inc from refs 32,33; 11-OH-THC fu,inc as surrogate for 7-OH-CBD and 7-COOH-CBD), mean ± SD; for Ki: Ki corrected for nonspecific binding (fu,inc from refs 32,33; 11-OH-THC fu,inc as surrogate for 7-OH-CBD), competitive model, mixed model for 11-OH-THC, read-out: Ki,u; for Inhibition Type: type of reversible inhibition of UGT2B7-mediated hydromorphone metabolism in HLM, Lineweaver-Burk replots; for inhibition of HM3G formation: 400 μM hydromorphone, 2% BSA, vs vehicle control.

A short description of data set [3]: Estimated maximum unbound hepatic inlet plasma concentrations of cannabinoids after oral or inhaled THC or CBD. Also on record: species or system human. Particulars: doses and Cmax from Bansal et al., 2022, read-out: Cmax,hepatic inlet,u. An excerpt: [I]h is the inhibitor concentration in the liver and is defined as follows:(7) [I]h=fu,p×(Cmax+Fa×Fg×Ka×Dose/Qh×Rb) where fu,p is the unbound fraction of inhibitor in plasma, and Cmax is the maximal total (free and bound) inhibitor concentration in the plasma.

For data set [4] the following is noted: set value for static model, cited from earlier work.
Data set [5] relates to UGT2B7-mediated hydromorphone metabolism. As to the kind of experiment: Static mechanistic IVIVE modeling of cannabinoid-hydromorphone drug interaction (AUCR). Also on record: species or system human. Particulars: after inhalation and oral consumption of THC and CBD.
For data set [6], the system named is UGT2B7^268Tyr. Conditions: from IC50,u values in rUGT2B7^268Tyr vs rUGT2B7^268His microsomes.

Changes are numbered by the printed parent chain. Entries after “also recorded” stand apart in the source; their conditions may differ. Read-outs that look alike come from different tables or passages of the source.

`C=C(C)[C@@H]1CCC(C(=O)O)=C[C@H]1c1c(O)cc(CCCCC)cc1O` [7-COOH-CBD]: the “inhibition of HM3G formation” value against UGT2B7^268Tyr [1] was found to be 41%; at UGT2B7^268His, 60%. Moreover, at UGT2B7^268Tyr [1], the “inhibitory effect on hydromorphone metabolism for the UGT2B7∗2 variant (in words)” value is given as “little to no inhibitory effect”. Besides, the IC50 at UGT2B7^268His was 5.54 ± 3.67 µM; in data set [2] (HLM), over 10 µM. Moreover, the “inhibition of HM3G formation (in words)” value in data set [2] was “only minimal or moderate inhibition”.
`CCCCCc1cc(O)c2c(c1)OC(C)(C)[C@@H]1CCC(C(=O)O)=C[C@@H]21` [11-COOH-THC, 11-nor-9-carboxy (COOH)-Δ^9-THC]: the Cmax is 0.19 µM in data set [3] (THC 20 mg oral); 0.07 µM in data set [3] (THC 25 mg inhalation); 0.18 µM in data set [3] (THC 70 mg inhalation); 0.26 µM in data set [3] (THC 100 mg inhalation); 1.22 µM in data set [3] (THC 130 mg oral); 1.5 µM in data set [3] (THC 160 mg oral). The “inhibition of HM3G formation” value is given as 27% against UGT2B7^268Tyr [1] and 49% against UGT2B7^268His. In addition, in data set [2], the “inhibition of HM3G formation (in words)” value was “only minimal or moderate inhibition; also recorded: did not show appreciable inhibition”.
With `CCCCCc1cc(O)c2c(c1)OC(C)(C)[C@@H]1CCC(C)=C[C@@H]21` [THC, Δ^9-tetrahydrocannabinol, reference compound], the Cmax is 0.03 µM in data set [3] (THC 20 mg oral); 0.25 µM in data set [3] (THC 25 mg inhalation); 0.69 µM in data set [3] (THC 70 mg inhalation); 0.99 µM in data set [3] (THC 100 mg inhalation); 0.2 µM in data set [3] (THC 130 mg oral); 0.24 µM in data set [3] (THC 160 mg oral). Besides, the results for the “inhibition of HM3G formation” value at UGT2B7^268Tyr [1] and at UGT2B7^268His were 45% and 67%, respectively. Besides, the “inhibitory effect on hydromorphone metabolism for the UGT2B7∗2 variant (in words)” value against UGT2B7^268Tyr [1] is reported as “little to no inhibitory effect”. Besides, the “ka (first-order absorption rate constant)” value in data set [4] (ref Cox et al., 2019) was 0.02. The “BP (blood to plasma ratio)” value in data set [4] (ref Schwilke et al., 2009) is given as 0.4. For the same compound, the values for the IC50 (at UGT2B7^268His; in data set [2] (HLM)) were 2.92 ± 0.26 µM and 2.5 ± 0.58 µM, respectively. Moreover, the “inhibition of HM3G formation (in words)” value in data set [2] is recorded as “only minimal or moderate inhibition”. In data set [2] (HLM), the Ki is 0.17 ± 0.02 µM. For the same compound, in data set [2], the “Inhibition Type” value was “Competitive”. The “increase in hydromorphone exposure (static modeling)” value (“increase in hydromorphone exposure” below) in data set [5] was over 1.25 fold.
Take 11-hydroxy (OH)-Δ^9-THC [11-OH-THC]: the peak concentration (Cmax) in data set [3] (THC 20 mg oral) is 0.02 µM; in data set [3] (THC 25 mg inhalation) it was 0.01 µM; in data set [3] (THC 70 mg inhalation) it was 0.03 µM; in data set [3] (THC 100 mg inhalation) it was 0.05 µM; in data set [3] (THC 130 mg oral), 0.1 µM; in data set [3] (THC 160 mg oral), 0.12 µM. Further, the “inhibitory effect against UGT2B7∗2, fold lower than with UGT2B7∗1” value with UGT2B7^268Tyr [6] is reported as 2- to 3 fold. The entries for the “inhibition of HM3G formation” value (against UGT2B7^268Tyr [1]; against UGT2B7^268His; in data set [2]) were 87%, 98% and 96%, respectively. Also, the figures for the IC50 (on UGT2B7^268Tyr [1]; at UGT2B7^268His; in data set [2] (HLM)) were 0.84 ± 0.19 µM, 0.36 ± 0.03 µM and 1.08 ± 0.14 µM, respectively. In data set [2] (HLM, GraphPad mixed inhibition model), the “α value (mixed inhibition model)” value is reported as over 1. In data set [2] (HLM), the Ki turned out to be 1.01 ± 0.18 µM. Moreover, the “Inhibition Type” value in data set [2] is “mixed type inhibition”. Further, the “increase in hydromorphone exposure” value in data set [5] is given as over 1.25 fold.
For the compound `C=C(C)[C@@H]1CCC(CO)=C[C@H]1c1c(O)cc(CCCCC)cc1O` [7-OH-CBD, 7-hydroxycannabidiol], the Cmax in data set [3] (CBD 70 mg oral) is 0.03 µM; in data set [3] (CBD 700 mg oral), 0.34 µM; in data set [3] (CBD 2000 mg oral) it was 0.98 µM. Besides, the “inhibition of HM3G formation” value against UGT2B7^268Tyr [1] is on record as 77%; against UGT2B7^268His, 82%; in data set [2], 87%. Moreover, the IC50 is 1.26 ± 0.93 µM at UGT2B7^268Tyr [1], 1.39 ± 0.77 µM on UGT2B7^268His and 0.95 ± 0.25 µM in data set [2] (HLM). In data set [2] (HLM), the Ki was 0.74 ± 0.12 µM. For the same compound, the “Inhibition Type” value in data set [2] is recorded as “Competitive”. Besides, the “increase in hydromorphone exposure” value in data set [5] is over 1.25 fold.

The IC50 is the concentration that gives 50% inhibition. The term Cmax denotes the peak of the concentration-time curve. What is called Ki is a dissociation constant, usually derived from enzyme kinetics or from competition with a known ligand.

The values are drawn from publication PMC12597549 (Drug Metabolism and Disposition, 2025).
